Measured values as given in patent US20010018071A1, “Oral 2-methyl-thieno-benzodiazepine formulation” (priority 1995, published 2001).

How the values were obtained:
[1] = Polymorph stability and transformation; type: physicochemical; conditions: for polymorph stability: anhydrous crystal forms
Description: Unfortunately, anhydrous Form II olanzapine is metastable and is therefore not well suited for commercial use in pharmaceutical formulations. Applicants have discovered that the pharmaceutically elegant anhydrous Form I olanzapine can be formulated in its substantially pure form as a stable solid oral preparation. Such formulation provides assurance of a uniform pharmaceutically elegant product substantially free of Form II impurity in order to comply with regulatory requirements.
Further certain excipients exacerbate physical instability. For commercial pharmaceutical development and compliance with regulatory guidelines, it is important to assure that marketed formulations comprise a uniform pharmaceutically elegant substantially pure anyhydrous Form I 2-methyl-4-(4-methyl-1-piperazinyl)-10H-thieno[2,3-b] [1,5] benzodiazepine compound as the active ingredient and most preferably the formulation is free from undesired discolorations.
(§1) The Form I 2-methyl-4-(4-methyl-1-piperazinyl)-10H-thieno[2,3-b]

[2] = Discoloration of olanzapine on contact with excipients; type: physicochemical
Description: Further, the discoloration was exacerbated by ambient air conditions, at elevated temperatures, and by moist environments.
as §1

[3] = Detection of radiolabelled compound in saliva; type: in vivo
Procedure: The anhydrous Form I 2-methyl-4-(4-methyl-1-piperazinyl)-10H-thieno-[2,3-b][1,5]benzodiazepine compound is effective over a wide dosage range, the actual dose administered being dependent on the condition being treated. For example, in the treatment of adult humans, dosages of from about 0.25 to 50 mg, preferably from 1 to 30 mg, and most preferably 1 to 20 mg per day may be used. A once a day dosage is normally sufficient, although divided doses may be administered. For treatment of central nervous system disorders, a dose range of from 1 to 30 mg, preferably 1 to 20 mg per day is suitable. Radiolabelled Form I 2-methyl-4-(4-methyl-1-piperazinyl)-10H-thieno-[2,3-b]

Cc1cc2c(s1)Nc1ccccc1N=C2N1CCN(C)CC1 [anhydrous Form II olanzapine, 2-methyl-4-(4-methyl-1-piperazinyl)-10H-thieno[2,3-b][1,5] benzodiazepine]
polymorph stability [1]: metastable

Cc1cc2c(s1)Nc1ccccc1N=C2N1CCN(C)CC1 [olanzapine, 2-methyl-4-(4-methyl-1-piperazinyl)-10H-thieno[2,3-b][1,5] benzodiazepine]
discoloration ([2]; contacted with certain excipients including powder blends): undergoes undesirable discoloration
discoloration ([2]; polyethylene glycol contact, particularly under moist conditions): produces undesired discoloration

Cc1cc2c(s1)Nc1ccccc1N=C2N1CCN(C)CC1 [Form I olanzapine, 2-methyl-4-(4-methyl-1-piperazinyl)-10H-thieno[2,3-b][1,5] benzodiazepine]
polymorph stability [1]: most stable known form
polymorphic conversion ([1]; contact with methylene chloride): can be converted to the less desirable polymorphic forms

Cc1cc2c(s1)Nc1ccccc1N=C2N1CCN(C)CC1 [2-methyl-4-(4-methyl-1-piperazinyl)-10H-thieno-[2,3-b] [1,5]benzodiazepine]
detection in saliva [3]: can be detected in the saliva
